Measured values from article PMC11855478, “Bicyclic N,S-Acetals Containing Fused Cysteine-Amide System as New Heterocyclic Class Targeting Human Farnesyltransferase (FTase-h)” (International Journal of Molecular Sciences, 2025).

Assays:
Format in all cases: cell-based, human
SR (Leukemia) = assay: NCI one dose, SR; settings: 1.00E-5 Molar one dose
Protocol: (§1) 3.4. Cell Proliferation Assay
(§2) Selected compounds were tested on a panel of 60 human cancer cell lines at the National Cancer Institute (NCI), Germantown, MD, USA. The cytotoxicity studies were conducted using a 48 h exposure protocol using the sulfo-rhodamine B assay.

UACC-62 (Melanoma) = assay: NCI one dose, UACC-62; settings: UACC-62, 1.00E-5 Molar one dose
Outline: (§3)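 Sulforhodamine B protein staining measured cell growth after cells from the NCI 60-line panel were exposed to compound for 48 h.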

KM12 (Colon Cancer) = assay: NCI one dose, KM12; settings: KM12, 1.00E-5 Molar one dose
Outline: as §3

786-0 (Renal Cancer) = assay: NCI one dose, 786-0; settings: 786-0, 1.00E-5 Molar one dose
Outline: as §3

[1] = system: NCI/ADR-RES (Ovarian Cancer); assay: NCI one dose, NCI/ADR-RES; settings: 1.00E-5 Molar one dose
Outline: as §3

[2] = system: MDA-MB-231/ATCC (Breast Cancer); assay: NCI one dose, MDA-MB-231/ATCC; settings: 1.00E-5 Molar one dose
Outline: as §3

TK-10 (Renal Cancer) = assay: NCI one dose, TK-10; settings: TK-10, 1.00E-5 Molar one dose
Outline: as §3

BT-549 (Breast Cancer) = assay: NCI one dose, BT-549; settings: BT-549, 1.00E-5 Molar one dose
Outline: as §3

[3] = system: NCI-H322M (Non-Small Cell Lung Cancer); assay: NCI one dose, NCI-H322M; settings: 1.00E-5 Molar one dose
Outline: as §3

T-47D (Breast Cancer) = assay: NCI one dose, T-47D; settings: 1.00E-5 Molar one dose
Protocol: as §1, §2

HT29 (Colon Cancer) = assay: NCI one dose, HT29; settings: HT29, 1.00E-5 Molar one dose
Outline: as §3

OVCAR-4 (Ovarian Cancer) = assay: NCI one dose, OVCAR-4; settings: OVCAR-4, 1.00E-5 Molar one dose
Outline: as §3

CAKI-1 (Renal Cancer) = assay: NCI one dose, CAKI-1; settings: CAKI-1, 1.00E-5 Molar one dose
Outline: as §3

OVCAR-3 (Ovarian Cancer) = assay: NCI one dose, OVCAR-3; settings: OVCAR-3, 1.00E-5 Molar one dose
Outline: as §3

K-562 leukaemia cells = assay: NCI one dose, K-562; settings: K-562, 1.00E-5 Molar one dose
Outline: as §3

SNB-19 (CNS Cancer) = assay: NCI one dose, SNB-19; settings: SNB-19, 1.00E-5 Molar one dose
Outline: as §3

RXF 393 (Renal Cancer) = assay: NCI one dose, RXF 393; settings: RXF 393, 1.00E-5 Molar one dose
Outline: as §3

UO-31 renal cancer cells = assay: NCI one dose, UO-31; settings: UO-31, 1.00E-5 Molar one dose
Outline: as §3

[4] = system: EKVX (Non-Small Cell Lung Cancer); assay: NCI one dose, EKVX; settings: 1.00E-5 Molar one dose
Outline: as §3

[5] = system: NCI-H522 non-small cell lung cancer cells; assay: NCI cell proliferation, NCI-H522; settings: for inhibition at 10 µM: Homo sapiens, NCI-H522, read-out: % Cancer cell growth Inhibition (NCI-H522); for Growth Percent: NCI-H522, 1.00E-5 Molar one dose
Outline: (§4)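 Read-out: SRB staining. Exposure: 48 h. Cells: NCI panel of 60 human cancer lines.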

[6] = system: HOP-92 (Non-Small Cell Lung Cancer); assay: NCI one dose, HOP-92; settings: HOP-92, 1.00E-5 Molar one dose
Outline: as §3

SW-620 (Colon Cancer) = assay: NCI one dose, SW-620; settings: SW-620, 1.00E-5 Molar one dose
Outline: as §3

COLO 205 (Colon Cancer) = assay: NCI one dose, COLO 205; settings: COLO 205, 1.00E-5 Molar one dose
Protocol: as §1, §2

OVCAR-8 (Ovarian Cancer) = assay: NCI one dose, OVCAR-8; settings: OVCAR-8, 1.00E-5 Molar one dose
Outline: as §4

SF-539 (CNS Cancer) = assay: NCI one dose, SF-539; settings: SF-539, 1.00E-5 Molar one dose
Outline: as §3

LOX IMVI (Melanoma) = assay: NCI one dose, LOX IMVI; settings: 1.00E-5 Molar one dose
Outline: as §3

[7] = system: NCI-H460 (Non-Small Cell Lung Cancer); assay: NCI one dose, NCI-H460; settings: NCI-H460, 1.00E-5 Molar one dose
Protocol: as §1, §2

M14 (Melanoma) = assay: NCI one dose, M14; settings: M14, 1.00E-5 Molar one dose
Outline: as §3

OVCAR-5 (Ovarian Cancer) = assay: NCI one dose, OVCAR-5; settings: OVCAR-5, 1.00E-5 Molar one dose
Outline: as §3

SK-OV-3 (Ovarian Cancer) = assay: NCI one dose, SK-OV-3; settings: SK-OV-3, 1.00E-5 Molar one dose
Outline: as §3

HS 578T (Breast Cancer) = assay: NCI one dose, HS 578T; settings: 1.00E-5 Molar one dose
Outline: as §3

SK-MEL-5 (Melanoma) = assay: NCI one dose, SK-MEL-5; settings: SK-MEL-5, 1.00E-5 Molar one dose
Outline: as §3

CCRF-CEM (Leukemia) = assay: NCI one dose, CCRF-CEM; settings: 1.00E-5 Molar one dose
Outline: as §3

| Structure (SMILES) | Growth Percent (SR (Leukemia)) [%] | Growth Percent (UACC-62 (Melanoma)) [%] | Growth Percent (KM12 (Colon Cancer)) [%] | Growth Percent (786-0 (Renal Cancer)) [%] | Growth Percent [1] [%] | Growth Percent [2] [%] | Growth Percent (TK-10 (Renal Cancer)) [%] | Growth Percent (BT-549 (Breast Cancer)) [%] | Growth Percent [3] [%] | Growth Percent (T-47D (Breast Cancer)) [%] | Growth Percent (HT29 (Colon Cancer)) [%] | Growth Percent (OVCAR-4 (Ovarian Cancer)) [%] | Growth Percent (CAKI-1 (Renal Cancer)) [%] | Growth Percent (OVCAR-3 (Ovarian Cancer)) [%] | Growth Percent (K-562 leukaemia cells) [%] | Growth Percent (SNB-19 (CNS Cancer)) [%] | Growth Percent (RXF 393 (Renal Cancer)) [%] | Growth Percent (UO-31 renal cancer cells) [%] | Growth Percent [4] [%] | inhibition at 10 µM [5] [%] | other results |
| --- | --- | --- | --- | --- | --- | --- | --- | --- | --- | --- | --- | --- | --- | --- | --- | --- | --- | --- | --- | --- | --- |
| C[C@@]12SC[C@@H](C(=O)NCc3cccc(C(F)(F)F)c3)N1C(=O)c1ccccc12 [4bD] | 75.10 | 87.82 | 99.50 | 100.40 | 100.57 | 97.63 | 101.65 | 100.02 | 100.14 | 89.18 | 78.21 | 89.60 | 80.18 | 109.46 | 81.47 | 99.21 | 105.49 | 81.22 | 98.64 | 31 | Growth Percent [5]: 68.93%; Growth Percent [6]: 88.94%; Growth Percent (SW-620 (Colon Cancer)): 108.66%; Growth Percent (COLO 205 (Colon Cancer)): 104.27%; Growth Percent (OVCAR-8 (Ovarian Cancer)): 92.35%; Growth Percent (SF-539 (CNS Cancer)): 99.59%; Growth Percent (LOX IMVI (Melanoma)): 100.31%; Growth Percent [7]: 109.48%; Growth Percent (M14 (Melanoma)): 103.59%; Growth Percent (OVCAR-5 (Ovarian Cancer)): 104.21%; Growth Percent (SK-OV-3 (Ovarian Cancer)): 97.14%; Growth Percent (HS 578T (Breast Cancer)): 96.99%; Growth Percent (SK-MEL-5 (Melanoma)): 101.35%; Growth Percent (CCRF-CEM (Leukemia)): 89.45% |
| C[C@@]12SC[C@@H](C(=O)NCc3ccccc3Br)N1C(=O)c1ccccc12 [4bB] | 80.60 | 82.12 | 100.14 | 101.65 | 94.45 | 97.39 | 99.69 | 107.51 | 99.70 | 83.93 | 83.02 | 80.04 | 79.18 | 111.49 | 80.28 | 100.80 | 96.88 | 86.71 | 106.14 | 22 | Growth Percent [5]: 78.46%; Growth Percent [6]: 88.23%; Growth Percent (SW-620 (Colon Cancer)): 103.50%; Growth Percent (COLO 205 (Colon Cancer)): 111.70%; Growth Percent (OVCAR-8 (Ovarian Cancer)): 92.33%; Growth Percent (SF-539 (CNS Cancer)): 90.78%; Growth Percent (LOX IMVI (Melanoma)): 97.04%; Growth Percent [7]: 103.30%; Growth Percent (M14 (Melanoma)): 107.44%; Growth Percent (OVCAR-5 (Ovarian Cancer)): 93.99%; Growth Percent (SK-OV-3 (Ovarian Cancer)): 88.35%; Growth Percent (HS 578T (Breast Cancer)): 91.10%; Growth Percent (SK-MEL-5 (Melanoma)): 90.98%; Growth Percent (CCRF-CEM (Leukemia)): 88.50% |
| C[C@@]12SC[C@@H](C(=O)NCc3ccccc3C(F)(F)F)N1C(=O)c1ccccc12 [4bC] | 72.94 | 87.36 | 100.49 | 101.91 | 101.64 | 100.45 | 92.04 | 104.97 | 101.48 | 86.40 | 79.15 | 93.35 | 84.55 | 115.46 | 87.85 | 103.86 | 101.10 | 91.39 | 104.01 | 19 | Growth Percent [5]: 80.71%; Growth Percent [6]: 87.86%; Growth Percent (SW-620 (Colon Cancer)): 104.67%; Growth Percent (COLO 205 (Colon Cancer)): 104.03%; Growth Percent (OVCAR-8 (Ovarian Cancer)): 92.54%; Growth Percent (SF-539 (CNS Cancer)): 100.26%; Growth Percent (LOX IMVI (Melanoma)): 102.39%; Growth Percent [7]: 105.02%; Growth Percent (M14 (Melanoma)): 100.54%; Growth Percent (OVCAR-5 (Ovarian Cancer)): 102.51%; Growth Percent (SK-OV-3 (Ovarian Cancer)): 100.95%; Growth Percent (HS 578T (Breast Cancer)): 94.37%; Growth Percent (SK-MEL-5 (Melanoma)): 100.19%; Growth Percent (CCRF-CEM (Leukemia)): 88.01% |
